Paper PMC10758781 (Heliyon, 2023)
Where two headings read alike, the source gives them in different places. *1 amine or outer side, *2 acyl side, *3 side chain or, on linkers, in order; H or OH if unused. Where a SMILES comes first, the peptide text is derived from it. Bridges are numbered along the chain shown (N, C = ends). Roman numbers before positions name the chains, in order. [ ]: non-standard residue; d: D form. Actinocin(9to1) = Cc1c2oc3c(C)ccc(C(=O)[*:1])c3nc-2c(C(=O)[*:2])c(N)c1=O; NMeV = CN[C@H](C(=O)O)C(C)C; Sar = CNCC(=O)O

Legend:
ERβ [1] = target: T1, ERβ (Homo sapiens, UniProt Q92731); assay type: cell-based; conditions: for effect on array size and dsRED2 features (in words): EPA45 library, 6-point dose-response; for activity in GFP-ERβ:PRL-HeLa, EPA45 batch received: first batch of EPA45 chemicals
ERβ [2] = target: T1, ERβ; assay type: cell-based; conditions: for decrease of E2-induced stimulation of dsRED2 mRNA / decrease of basal dsRED2 mRNA transcription: 2-h, 4HT, ICI, PHTTP 1 μM, ActD 1 μg/ml, Flavo 100 nM; for decrease of E2-induced stimulation of dsRED2 mRNA: plus E2 10 nM; for decrease of basal dsRED2 mRNA transcription: without E2
[3] = test system: zebrafish ERs (zERα, zERβ1, and zERβ2); assay type: in vivo; conditions: 3 dpf
ERβ LBD = ERβ LBD only, without NLS; ref ToxCast [23]; cited from earlier work
zebrafish = conditions: 3 dpf; for Toxicity, number of zebrafish: total fish in next column
zERα = target: T2, zERα (Danio rerio, UniProt P57717); assay type: in vivo, zebrafish; conditions: 3 dpf
T2 sequence (P57717 1-569): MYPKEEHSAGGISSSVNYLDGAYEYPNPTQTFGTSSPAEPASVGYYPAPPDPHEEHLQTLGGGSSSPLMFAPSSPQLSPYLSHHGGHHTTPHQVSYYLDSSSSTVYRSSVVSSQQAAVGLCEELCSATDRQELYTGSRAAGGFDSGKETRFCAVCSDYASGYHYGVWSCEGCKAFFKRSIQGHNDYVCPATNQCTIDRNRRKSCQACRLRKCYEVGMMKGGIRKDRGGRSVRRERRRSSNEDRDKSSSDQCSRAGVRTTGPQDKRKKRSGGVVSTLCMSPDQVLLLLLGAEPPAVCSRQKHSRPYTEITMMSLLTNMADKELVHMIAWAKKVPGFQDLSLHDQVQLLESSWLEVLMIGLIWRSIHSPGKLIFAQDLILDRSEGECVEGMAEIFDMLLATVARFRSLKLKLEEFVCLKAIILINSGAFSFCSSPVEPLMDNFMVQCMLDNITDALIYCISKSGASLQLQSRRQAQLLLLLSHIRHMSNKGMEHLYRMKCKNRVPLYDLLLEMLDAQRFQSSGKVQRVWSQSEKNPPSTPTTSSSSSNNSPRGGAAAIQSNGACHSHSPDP

zERβ2 = assay type: in vivo, zebrafish; conditions: 3 dpf; for Liver GFP signal, number of zebrafish: total fish in next column
[4] = test system: zebrafish ERs (zERα, zERβ1, and zERβ2); conditions: read-out: EC50 in ERE:GFP zebrafish; previously published results; ref [36],[37]; cited from earlier work
[5] = time course, E2 10 nM, 4HT 100 nM
[6] = both concentrations tested (2 and 20 μM)

T1 sequence (Q92731 whole entry): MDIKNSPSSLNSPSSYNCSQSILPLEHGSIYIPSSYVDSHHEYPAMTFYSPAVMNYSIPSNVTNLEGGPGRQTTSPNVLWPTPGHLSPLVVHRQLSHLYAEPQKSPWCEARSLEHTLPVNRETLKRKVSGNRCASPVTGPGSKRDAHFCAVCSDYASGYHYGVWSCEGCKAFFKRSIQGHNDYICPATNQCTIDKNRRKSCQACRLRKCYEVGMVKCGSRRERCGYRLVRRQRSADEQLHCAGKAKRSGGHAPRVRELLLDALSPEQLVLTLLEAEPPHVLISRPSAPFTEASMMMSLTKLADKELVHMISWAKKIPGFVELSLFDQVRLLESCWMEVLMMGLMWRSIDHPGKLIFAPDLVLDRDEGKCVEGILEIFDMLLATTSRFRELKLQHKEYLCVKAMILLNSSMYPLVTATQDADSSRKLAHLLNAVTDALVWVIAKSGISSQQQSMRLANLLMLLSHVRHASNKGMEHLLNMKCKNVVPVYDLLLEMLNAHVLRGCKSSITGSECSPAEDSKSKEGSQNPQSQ

CC/C(=C(\c1ccc(O)cc1)c1ccc(OCCN(C)C)cc1)c1ccccc1 [4HT, 4-Hydroxytamoxifen]
Z-prime, Array Size (ERβ [1]; 384 well plates, four technical and four biological replicates): 0.61 ± 0.13 | change in array size vs DMSO (in words) (ERβ [1]; [5]): decreasing it | change in nuclear GFP-ERβ levels (in words) (ERβ [1]; [5]): increase in GFP-ERβ signal within the nucleus | decrease of E2-induced stimulation of dsRED2 mRNA (ERβ [2]): > 2 fold | decrease of basal dsRED2 mRNA transcription (ERβ [2]): > 2 fold | intensity of dsRED2 RNA signal at the array (in words) (ERβ [2]; 4HT 100 nM, vs DMSO): diminishing significantly

C[C@]12C[C@H](O)[C@H]3[C@@H](CCC4=CC(=O)CC[C@@]43C)[C@@H]1CC[C@@H]2C(=O)CO [Corticosterone]
tissue GFP signal (in words) [3, 6]: showed GFP signal in both the liver and heart valve | effect on array size and dsRED2 features (in words) (ERβ [1]; 2-h): showed response in both features | activity in BiFC ERβ dimerization assay (ERβ LBD): no effect | Dead/Abnormal zebrafish / total (zebrafish; 2 μM): 0/18 | Dead/Abnormal zebrafish / total (zebrafish; 20 μM): 2/18 | Heart (zERα/hERβ), zebrafish with GFP signal / total (zERα; 2 μM): 18/18 | Heart (zERα/hERβ), zebrafish with GFP signal / total (zERα; 20 μM): 16/18 | Liver (zERβ/hERα), zebrafish with GFP signal / total (zERβ2; 2 μM): 18/18 | Liver (zERβ/hERα), zebrafish with GFP signal / total (zERβ2; 20 μM): 16/18

C[C@@H]1C[C@@H]([C@H](O)CC2CC(=O)NC(=O)C2)C(=O)[C@@H](C)C1 [Cycloheximide]
effect on array size and dsRED2 features (in words) (ERβ [1]; 2-h): showed response in both features | activity in BiFC ERβ dimerization assay (ERβ LBD): no effect | Dead/Abnormal zebrafish / total (zebrafish; 2 μM): 0/18 | Dead/Abnormal zebrafish / total (zebrafish; 20 μM): 8/18 | toxicity in zebrafish (in words) (zebrafish; 2 and 20 μM): mostly toxic | Liver (zERβ/hERα), zebrafish with GFP signal / total (zERβ2; 2 μM): 0/18 | Liver (zERβ/hERα), zebrafish with GFP signal / total (zERβ2; 20 μM): 1/18

C[C@]12CC[C@@H]3c4ccc(O)cc4CC[C@H]3[C@@H]1CC[C@@H]2O [E2, Estradiol (17-β)]
lowest concentration inducing GFP signal in both heart valve and liver [3]: 10 nM | Toxicity, number of zebrafish (zebrafish; 1 nM): 0 | Toxicity, number of zebrafish (zebrafish; 10 nM): 0 | Toxicity, number of zebrafish (zebrafish; 100 nM): 0 | increase of intensity of dsRED2 RNA signal at the array (ERβ [2]; E2 10 nM, vs DMSO): ~3 fold | Liver GFP signal, number of zebrafish (zERβ2; 1 nM): 0 | Liver GFP signal, number of zebrafish (zERβ2; 10 nM): 10 | Liver GFP signal, number of zebrafish (zERβ2; 100 nM): 12 | EC50 [4]: 3 to 5 nM

C[C@]12CC[C@@H]3c4ccc(O)cc4C[C@@H](CCCCCCCCC[S+]([O-])CCCC(F)(F)C(F)(F)F)[C@H]3[C@@H]1CC[C@@H]2O (some centres unmarked) [ICI182,780, ICI 182,780]
decrease of E2-induced stimulation of dsRED2 mRNA (ERβ [2]): > 2 fold | decrease of basal dsRED2 mRNA transcription (ERβ [2]): > 2 fold

O=c1c(O)c(-c2ccc(O)cc2)oc2cc(O)cc(O)c12 [Kaempferol]
Dead/Abnormal zebrafish / total (zebrafish; 2 μM): 0/18 | Dead/Abnormal zebrafish / total (zebrafish; 20 μM): 0/18 | Liver (zERβ/hERα), zebrafish with GFP signal / total (zERβ2; 2 μM): 0/18 | Liver (zERβ/hERα), zebrafish with GFP signal / total (zERβ2; 20 μM): 0/18

O=C1C2(Cl)C3(Cl)C4(Cl)C(Cl)(Cl)C5(Cl)C3(Cl)C1(Cl)C5(Cl)C24Cl (centres unmarked) [Kepone]
Dead/Abnormal zebrafish / total (zebrafish; 2 μM): 0/18 | Dead/Abnormal zebrafish / total (zebrafish; 20 μM): 0/18 | Liver (zERβ/hERα), zebrafish with GFP signal / total (zERβ2; 2 μM): 0/18 | Liver (zERβ/hERα), zebrafish with GFP signal / total (zERβ2; 20 μM): 0/18

Oc1ccc(-c2c(-c3ccccc3)nn3c(C(F)(F)F)cc(C(F)(F)F)nc23)cc1 [PHTTP, 4-[2-phenyl-5,7-bis(trifluoromethyl)pyrazolo[1,5-a]pyrimidin-3-yl]phenol]
ER subtype preference across array metrics (ERβ [1]; GFP-ERβ:PRL-HeLa vs GFP-ERα:PRL-HeLa, 2-h, 10pM to 1 μM): preference for ERβ | decrease of E2-induced stimulation of dsRED2 mRNA (ERβ [2]): > 2 fold | decrease of basal dsRED2 mRNA transcription (ERβ [2]): > 2 fold

CCC1(c2ccccc2)C(=O)NC(=O)NC1=O [Phenobarbital sodium]
tissue GFP signal (in words) [3, 6]: showed GFP signal in both the liver and heart valve | effect on array size and dsRED2 features (in words) (ERβ [1]; 2-h): showed response in both features | activity in BiFC ERβ dimerization assay (ERβ LBD): no effect | Dead/Abnormal zebrafish / total (zebrafish; 2 μM): 1/18 | Dead/Abnormal zebrafish / total (zebrafish; 20 μM): 1/18 | Heart (zERα/hERβ), zebrafish with GFP signal / total (zERα; 2 μM): 17/18 | Heart (zERα/hERβ), zebrafish with GFP signal / total (zERα; 20 μM): 14/18 | Liver (zERβ/hERα), zebrafish with GFP signal / total (zERβ2; 2 μM): 16/18 | Liver (zERβ/hERα), zebrafish with GFP signal / total (zERβ2; 20 μM): 16/18

Cc1c2oc3c(C)ccc(C(=O)N[C@@H]4C(=O)N[C@H](C(C)C)C(=O)N5CCC[C@H]5C(=O)N(C)CC(=O)N(C)[C@@H](C(C)C)C(=O)O[C@@H]4C)c3nc-2c(C(=O)N[C@@H]2C(=O)N[C@H](C(C)C)C(=O)N3CCC[C@H]3C(=O)N(C)CC(=O)N(C)[C@@H](C(C)C)C(=O)O[C@@H]2C)c(N)c1=O [actinomycin D] (I: T[dV]P[Sar][NMeV] / II: T[dV]P[Sar][NMeV]; ester I:1-I:C, II:1-II:C; linker I:N-II:N via Actinocin(9to1))
decrease of E2-induced stimulation of dsRED2 mRNA (ERβ [2]): > 2 fold | decrease of basal dsRED2 mRNA transcription (ERβ [2]): > 2 fold

CCCCOC(=O)c1ccccc1C(=O)OCc1ccccc1 [benzylbutylphthalate]
activity in BiFC ERβ dimerization assay (ERβ LBD): hits

CC(C)(c1ccc(O)cc1)c1ccc(O)cc1 [bisphenol A]
activity in GFP-ERβ:PRL-HeLa, EPA45 batch received (ERβ [1]; 2-h): inactive | activity in GFP-ERβ:PRL-HeLa, independent batches (ERβ [1]; independent batches of the chemicals): confirmed activity

CCC(C)(c1ccc(O)cc1)c1ccc(O)cc1 [bisphenol B]
activity in GFP-ERβ:PRL-HeLa, EPA45 batch received (ERβ [1]; 2-h): inactive | activation of dsRED2, independent batch (ERβ [2]; independent batch of the chemical): little activation

OC(c1ccc(Cl)cc1)(c1ccc(Cl)cc1)C(Cl)(Cl)Cl [dicofol]
activity in BiFC ERβ dimerization assay (ERβ LBD): hits

CC/C(=C(/CC)c1ccc(O)cc1)c1ccc(O)cc1 [diethylstilbestrol]
activity in GFP-ERβ:PRL-HeLa, EPA45 batch received (ERβ [1]; 2-h): inactive

OC(c1ccc(Cl)cc1)(c1cncnc1)c1ccccc1Cl (centres unmarked) [fenarimol]
activity in BiFC ERβ dimerization assay (ERβ LBD): hits

CN1CC[C@H](c2c(O)cc(O)c3c(=O)cc(-c4ccccc4Cl)oc23)[C@H](O)C1 [flavopirodol]
decrease of E2-induced stimulation of dsRED2 mRNA (ERβ [2]): > 2 fold | decrease of basal dsRED2 mRNA transcription (ERβ [2]): > 2 fold

O=c1c(-c2ccc(O)cc2)coc2cc(O)cc(O)c12 [genistein, Genistein]
tissue GFP signal (in words) ([3]; 1 μM): only heart valve signal | tissue GFP signal (in words) ([3]; 10 μM): heart valve and liver signal | Toxicity, number of zebrafish (zebrafish; 1 μM): 0 | Toxicity, number of zebrafish (zebrafish; 10 μM): 0 | Toxicity, number of zebrafish (zebrafish; 100 μM): 12 | Liver GFP signal, number of zebrafish (zERβ2; 1 μM): 0 | Liver GFP signal, number of zebrafish (zERβ2; 10 μM): 12 | Liver GFP signal, number of zebrafish (zERβ2; 100 μM): 6

COc1ccc(C(c2ccc(OC)cc2)C(Cl)(Cl)Cl)cc1 [methoxychlor]
activity in BiFC ERβ dimerization assay (ERβ LBD): hits
